Measurements taken from PMC12364333, “Degradation of catecholate, hydroxamate, and carboxylate model siderophores by extracellular enzymes” (PLOS One, 2025).

Test system: T1, phenol oxidase (a tyrosinase)
T1 construct: gene PPO3
Assay: initial rates of product formation ([…] h); Lineweaver-Burk plot
Type: biochemical, Agaricus bisporus
Conditions: O2 as oxidant; buffered at pH 7.0 (25 mM phosphate) and 20 °C in the general protocol; 0.01-1 mM protochelin; apo siderophore

O=C(NCCCCNC(=O)[C@H](CCCCNC(=O)c1cccc(O)c1O)NC(=O)c1cccc(O)c1O)c1cccc(O)c1O [protochelin]
Km: 430 µM
